Holding throughout (format): cell-based
The test system of one test is rat muscle cell lines. The experiment in a line: fatty acid oxidation in rat muscle cell line. As to conditions: in vitro.
In the next test the target is T1, PPARδ (Mus musculus, UniProt P35396).
T1 construct: expressed in transfected cells; host or cells: Jump-In GripTite HEK293
T1 sequence (P35396 210-438 limits assumed): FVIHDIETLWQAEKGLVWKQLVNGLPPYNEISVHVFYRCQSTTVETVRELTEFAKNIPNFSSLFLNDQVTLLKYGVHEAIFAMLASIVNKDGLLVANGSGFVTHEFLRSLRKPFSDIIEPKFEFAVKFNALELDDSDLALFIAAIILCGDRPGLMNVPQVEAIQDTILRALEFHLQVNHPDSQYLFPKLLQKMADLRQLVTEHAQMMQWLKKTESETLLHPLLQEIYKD
Put plainly: PPAR receptor transactivation assay, mouse PPARδ.

Another test addresses T2, hPPARδ (Homo sapiens, UniProt Q03181).
T2 construct: expressed in transfected cells; host or cells: Jump-In GripTite HEK293
T2 sequence (Q03181 211-439 limits assumed): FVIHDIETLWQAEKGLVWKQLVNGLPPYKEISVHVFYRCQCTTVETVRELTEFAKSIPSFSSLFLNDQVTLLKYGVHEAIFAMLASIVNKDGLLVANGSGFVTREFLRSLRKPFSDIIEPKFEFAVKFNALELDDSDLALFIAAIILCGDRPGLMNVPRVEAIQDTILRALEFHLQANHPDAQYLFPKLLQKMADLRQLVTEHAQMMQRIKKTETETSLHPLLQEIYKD
Put plainly: PPAR receptor transactivation assay, human PPARδ. The protocol:
(§1) Compound 1 was tested on all three human PPAR subtypes (hPPAR): hPPARα, hPPARγ, and hPPARδ. All assays were repeated at least three times for each subtype.
(§2) The genes of interest were synthesized and cloned into an appropriate Jump-In™ retargeting vector following the User Guide of the Jump-In™ T-REx™ HEK293 Retargeting Kit (ThermoFisher Catalog No A15008). For example, the vector will be used to transfect and retarget the Jump-In™ HEK293 GripTite™ parental cell line. Stable pools will be antibiotic-selected for about 21 days and tested for target gene expression by functional assay.
(§3) Jump-In™ GripTite™ HEK293 parental cells were plated at 60-80% confluency in a T-75 flask in growth medium without antibiotics and transfected with a 1:1 ratio of expression construct and R4 integrase expression construct (20 μg DNA total) using Lipofectamine® LTX (50 μL) and PLUS™ Reagent (20 μL). Following a 48 hours incubation, cells were selected with 600 μg/mL Geneticin® and 10 μg/mL Blasticidin for ˜21 days in growth medium.
(§4) Jump-In™ GripTite™ HEK293 rPPAR Alpha, Delta or Gamma UAS-bla-Gal4 cell pools were plated in a 384-well plate format (20,000 cells per well) in OptiMeM without FBS in replicates (n=4). Cells were allowed to adhere for 8 hours before addition of Compound 1 (1 mM top concentration, 3-fold dilutions, 10-point titration). After 16 hours, the cells were loaded with LiveBLAzer®, a fluorescent BLA substrate that gives a blue/green readout of expressing/non-expressing cells, respectively. The blue/green readout was measured on a fluorescent plate reader (Tecan Safire II).

In a further test the target is T3, hPPARγ (Homo sapiens, UniProt P37231).
T3 construct: expressed in transfected cells; host or cells: Jump-In GripTite HEK293
T3 sequence (P37231 238-503 limits assumed): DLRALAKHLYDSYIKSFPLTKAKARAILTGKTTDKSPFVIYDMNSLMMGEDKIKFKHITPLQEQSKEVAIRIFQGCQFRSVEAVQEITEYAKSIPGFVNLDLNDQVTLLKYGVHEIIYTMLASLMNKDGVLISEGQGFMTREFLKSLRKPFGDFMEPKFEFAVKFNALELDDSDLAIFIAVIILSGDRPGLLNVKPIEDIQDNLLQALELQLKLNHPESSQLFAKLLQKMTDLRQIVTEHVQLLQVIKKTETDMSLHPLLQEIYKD
The experiment in a line: PPAR receptor transactivation assay, human PPARγ. How it is done: as §1, §2, §3, §4

Consider one compound from patent publication US20220117972A1, “USE OF PPAR-DELTA AGONISTS IN THE TREATMENT OF MITOCHONDRIAL MYOPATHY” (Reneo Pharmaceuticals, Inc., priority 2019, published 2022).

Each structure is given as a SMILES string. Some results are limits rather than exact numbers.

With `Cc1cc(OC/C=C(/c2ccc(F)cc2)c2ccc(C#CCN3CCOCC3)cc2)ccc1OCC(=O)O` [Compound 1, (E)-[4-[3-(4-Fluorophenyl)-3-[4-[3-(morpholin-4-yl)propynyl]phenyl]allyloxy]-2-methyl-phenoxy]acetic acid], the fatty acid oxidation entry in the test with rat muscle cell lines is given as “dose-dependent increase”. Also, the 50% effective concentration (EC50) on PPARδ was 240 nM; at hPPARδ (Human PPARδ), 31 nM; on hPPARγ (Human PPARγ) it was > 10000 nM. Besides, the “selectivity for PPARδ over PPARα and PPARγ” value on hPPARδ (in humans, monkey, and mouse) is listed as “significantly greater selectivity”. Moreover, the “agonist type at PPARδ” value on hPPARδ (in some cases) was “full agonist”. Moreover, the “activity on PPARγ in transactivation assays” value at hPPARγ (in some cases) is listed as “negligible activity”. The “agonist type at PPARγ” value on hPPARγ (in some cases) is on record as “partial agonist”.

Usually EC50 stands for the midpoint of the concentration-response curve. Higher therefore signals a need for much substance.
